Patent US7273873B2, “Camptothecins with a modified lactone ring” (Sigma-Tau Industrie Farmaceutiche Riunite S.p.A., priority 2002, dated 2007)
Like-named read-outs stand apart in the source and are kept apart here.

Key:
NCI-H460 = test: Antiproliferative (cytotoxicity) test, sulforhodamine B, NCI-H460 cells; assay type: cell-based, human
Excerpt: The cytotoxic activity of the compounds according to the present invention has been assayed in cell systems of human tumour cells, using the antiproliferative activity test as the method of evaluating the cytotoxic potential.
The cell line used is a non-microcytoma pulmonary adenocarcinoma called NCI H460, belonging to the NSCLC (non small cell lung cancer) class.
To evaluate the effect of the compounds according to the present invention, their cytotoxocity against the non-microcytoma lung cancer cell line (NCI-H460) was evaluated. Cells from the American Type Culture Collection (ATCC) were maintained in culture in RPMI 1640 (GIBCO) containing 10% foetal calf serum and gentamicin sulphate at a concentration of 50 µg/ml.
The cells were seeded in a volume of 250 μl in 96-well plates and incubated for 24 h at 37° C. The next day the study compounds were added at scalar concentrations from 1 μM to 0.004 μM, and the cells were incubated for another 2 h at 37° C. in a humidified atmosphere containing 5% CO2. The cells were washed 3 times, overturning the plates each time and adding PBS. 200 μl/well of RPMI 1640 medium containing 10% FCS were added and the plates were incubated at 37° C. for a further 72 h. On day 5, the growth medium was removed by overturning the plates, and 200 μl/well of PBS and 50 μl of 80% cold TCA were added. The plates were then incubated in ice for at least 1 h. The TCA was removed by overturning; the plates were washed 3 times by immersion in distilled water and dried first on blotting paper and then under a hot air jet. 200 μl of 0.4% sulforodamine B in 1% acetic acid were added to all wells. The plates were incubated at room temperature for a further 30 minutes. The sulforodamine B was removed by overturning; the plates were washed by immersion 3 times in 1% acetic acid and then dried first on blotting paper and then with a jet of hot air. 200 μl of Tris base 10 mM were added to all wells and the plates were subjected to stirring for at least 20 minutes. The optical density was measured using a Multiskan spectrophotometer at 540 nm.
Table 1 presents the IC50 values, that is to say the concentration capable of inhibiting 50% of cell survival, for each compound examined, processed using ALLFIT software.

[1] = 2 h exposure, 72 h recovery, sulforodamine B, concentration inhibiting 50% of cell survival, read-out: NCI-H460 IC50

Compound | IC50 (NCI-H460; [1]) [nM] | also measured
CCC1(CC(=O)OC(C)(C)C)OC(=O)c2c1cc1n(c2=O)Cc2cc3ccccc3nc2-1 (centres unmarked) [ST2084, Ter-butyl ester of (3-ethyl-1,13-dioxo-11,13-dihydro-1H,3H-furo[3′,4′:6,7]indolizino[1,2-b]quinolin-3-yl)acetic acid] | > 1000 | –
CCC1(O)CC(=O)OCc2c1cc1n(c2=O)Cc2c-1nc1ccccc1c2C=NOC(C)(C)C (centres unmarked) [ST2127, R,S-7-(1-t-butoxy)iminomethyl-homocamptothecin] | 26 | –
CCC1(O)CC(=O)OCc2c1cc1n(c2=O)Cc2c-1nc1ccccc1c2C=NOC(C)(C)C (centres unmarked) [ST2523] | – | IC50 (NCI-H460; H460 cells, isolated enantiomers of ST2127, read-out: IC50 (H460)): > 200 nM
CCC1(O)CC(=O)OCc2c1cc1n(c2=O)Cc2c-1nc1ccccc1c2/C=N/OCc1ccccc1 (centres unmarked) [ST2143, R,S-7-benzyloxyiminomethyl-homocamptothecin] | 7 | –
CCC1(CC(=O)O)OC(=O)c2c1cc1n(c2=O)Cc2c-1nc1ccccc1c2/C=N/OC(C)(C)C (centres unmarked) [ST2196, {10-[(E)-(ter-butoxyimino)methyl]-3-ethyl-1,13-dioxo-11,13-dihydro-1H,3H-furo[3′,4′:6.7]indolizino[1,2-b]quinolin-3-yl} acetic acid] | > 1000 | –
CCC1(CC(=O)O)OC(=O)c2c1cc1n(c2=O)Cc2c-1nc1ccccc1c2/C=N/OCc1ccccc1 (centres unmarked) [ST2285, (10-{(E)-[(benzyloxy)imino]methyl}-3-ethyl-1,13-dioxo-11,13-dihydro-1H,3H-furo[3′,4′:6,7]indolizino[1,2-b]quinolin-3-yl)-acetic acid] | – | IC50 (NCI-H460; Homo sapiens, NCI-H460, 2 h exposure, 72 h recovery, sulforodamine B, concentration inhibiting 50% of cell survival, read-out: NCI-H460 IC50): > 1000 nM; melting point: 188 °C (dec.)
CCC1(CC(=O)O)OC(=O)c2c1cc1n(c2=O)Cc2cc3ccccc3nc2-1 (centres unmarked) [ST2085, (3-ethyl-1,13-dioxo-11,13-dihydro-1H,3H-furor[3′,4′:6,7]indolizino[1,2-b]quinolin-3-yl)acetic acid] | > 1000 | –
